In ChEMBL document CHEMBL4831514, “Novel betulin dicarboxylic acid ester derivatives as potent antiviral agents: Design, synthesis, biological evaluation, structure-activity relationship and in-silico study” (Eur J Med Chem, 2021):
Activity calls are given as the source filed them. No cut-off for these calls is given here.

The compounds below were run on Vesicular stomatitis virus (assay: Antiviral activity against Vesicular stomatitis virus Indiana infected in A549 cells assessed as inhibition of viral adsorption at early stage of replication treated for 1 hr during viral infection followed by replacement with fresh medium and measured after 48 hrs by MTT assay).
Assay type: functional, organism-based

Compound	Activity
C=C(C)[C@@H]1CC[C@]2(COC(=O)/C=C(\C)C(=O)N3CCOCC3)CC[C@]3(C)[C@H](CC[C@@H]4[C@@]5(C)CC[C@H](O)C(C)(C)[C@@H]5CC[C@]43C)[C@@H]12	inactive
C#CCNC(=O)c1cccc(C(=O)OC[C@]23CC[C@@H](C(=C)C)[C@@H]2[C@H]2CC[C@@H]4C5(C)CC[C@H](O)C(C)(C)[C@@H]5CC[C@@]4(C)[C@]2(C)CC3)c1 (single isomer, unassigned)	inactive
C#CC1(NC(=O)c2cccc(C(=O)OC[C@]34CC[C@@H](C(=C)C)[C@@H]3[C@H]3CC[C@@H]5[C@@]6(C)CC[C@H](O)C(C)(C)[C@@H]6CC[C@@]5(C)[C@]3(C)CC4)c2)CCCCC1	inactive
C=C(C)[C@@H]1CC[C@]2(COC(=O)c3ccccc3C(=O)N3CCOCC3)CC[C@]3(C)[C@H](CC[C@@H]4[C@@]5(C)CC[C@H](O)C(C)(C)[C@@H]5CC[C@]43C)[C@@H]12	inactive
C#CC1(NC(=O)/C(C)=C/C(=O)OC[C@]23CC[C@@H](C(=C)C)[C@@H]2[C@H]2CC[C@@H]4[C@@]5(C)CC[C@H](O)C(C)(C)[C@@H]5CC[C@@]4(C)[C@]2(C)CC3)CCCCC1	inactive
C=C(C)[C@@H]1CC[C@]2(COC(=O)c3ccccc3C(=O)O)CC[C@]3(C)[C@H](CC[C@@H]4[C@@]5(C)CC[C@H](O)C(C)(C)[C@@H]5CC[C@]43C)[C@@H]12	inactive
C=C(C)[C@@H]1CC[C@]2(COC(=O)CCC(=O)N3CCCCC3)CC[C@]3(C)[C@H](CC[C@@H]4[C@@]5(C)CCC(O)C(C)(C)[C@@H]5CC[C@]43C)[C@@H]12 (single isomer, unassigned)	inactive
C=C(C)[C@@H]1CC[C@]2(COC(=O)CCCC(=O)N3CCSCC3)CC[C@]3(C)[C@H](CC[C@@H]4[C@@]5(C)CC[C@H](O)C(C)(C)[C@@H]5CC[C@]43C)[C@@H]12	inactive
C=C(C)[C@@H]1CC[C@]2(COC(=O)c3cccc(C(=O)N4CCSCC4)c3)CC[C@]3(C)[C@H](CC[C@@H]4[C@@]5(C)CC[C@H](O)C(C)(C)[C@@H]5CC[C@]43C)C12 (single isomer, unassigned)	inactive
Nc1nc2c(ncn2COCCO)c(=O)[nH]1 [ACYCLOVIR]	inactive
C=C(C)[C@@H]1CC[C@]2(COC(=O)CSCC(=O)O)CC[C@]3(C)[C@H](CC[C@@H]4[C@@]5(C)CC[C@H](O)C(C)(C)[C@@H]5CC[C@]43C)[C@@H]12	inactive
C=C(C)[C@@H]1CC[C@]2(CO)CC[C@]3(C)[C@H](CC[C@@H]4[C@@]5(C)CC[C@H](O)C(C)(C)[C@@H]5CC[C@]43C)[C@@H]12 [BETULIN]	inactive
C#CC1(NC(=O)CCC(=O)OC[C@]23CC[C@@H](C(=C)C)[C@@H]2[C@H]2CC[C@@H]4[C@@]5(C)CC[C@H](O)C(C)(C)[C@@H]5CC[C@@]4(C)[C@]2(C)CC3)CCCCC1	inactive
C#CCNC(=O)CCC(=O)OC[C@]12CC[C@@H](C(=C)C)C1[C@H]1CC[C@@H]3[C@@]4(C)CC[C@H](O)C(C)(C)[C@@H]4CC[C@@]3(C)[C@]1(C)CC2 (single isomer, unassigned)	inactive
C=C(C)[C@@H]1CC[C@]2(COC(=O)/C=C(\C)C(=O)O)CC[C@]3(C)[C@H](CC[C@@H]4[C@@]5(C)CC[C@H](O)C(C)(C)[C@@H]5CC[C@]43C)[C@@H]12	inactive
C#CCNC(=O)CCCC(=O)OC[C@]12CC[C@@H](C(=C)C)[C@@H]1[C@H]1CC[C@@H]3[C@@]4(C)CC[C@H](O)C(C)(C)[C@@H]4CC[C@@]3(C)[C@]1(C)CC2	inactive
C=C(C)[C@@H]1CC[C@]2(COC(=O)c3cccc(C(=O)N4CCOCC4)c3)CC[C@]3(C)[C@H](CC[C@@H]4[C@@]5(C)CC[C@H](O)C(C)(C)[C@@H]5CC[C@]43C)[C@@H]12	inactive
C=C(C)[C@@H]1CC[C@]2(COC(=O)CCC(=O)N3CCOCC3)CC[C@]3(C)[C@H](CC[C@@H]4[C@@]5(C)CC[C@H](O)C(C)(C)[C@@H]5CC[C@]43C)[C@@H]12	inactive
C=C(C)[C@@H]1CC[C@]2(COC(=O)c3cccc(C(=O)N4CCCCC4)c3)CC[C@]3(C)[C@H](CC[C@@H]4[C@@]5(C)CC[C@H](O)C(C)(C)[C@@H]5CC[C@]43C)[C@@H]12	inactive
Nc1ccn(C[C@@H](CO)OCP(=O)(O)O)c(=O)n1.O.O [CIDOFOVIR]	inactive
C=C(C)[C@@H]1CC[C@]2(COC(=O)CCCCCCCCCC(=O)N3CCCCC3)CC[C@]3(C)[C@H](CC[C@@H]4[C@@]5(C)CC[C@H](O)C(C)(C)[C@@H]5CC[C@]43C)[C@@H]12	inactive

Compound	Activity
C=C(C)[C@@H]1CC[C@]2(COC(=O)CCCC(=O)O)CC[C@]3(C)[C@H](CC[C@@H]4[C@@]5(C)CC[C@H](O)C(C)(C)[C@@H]5CC[C@]43C)[C@@H]12	inactive
C=C(C)[C@@H]1CC[C@]2(COC(=O)/C=C/C(=O)O)CC[C@]3(C)[C@H](CC[C@@H]4[C@@]5(C)CC[C@H](O)C(C)(C)[C@@H]5CC[C@]43C)[C@@H]12	inactive
C=C(C)[C@@H]1CC[C@]2(COC(=O)CCC(=O)N3CCSCC3)CC[C@]3(C)[C@H](CC[C@@H]4[C@@]5(C)CC[C@H](O)C(C)(C)[C@@H]5CC[C@]43C)[C@@H]12	inactive
C#CCNC(=O)c1ccccc1C(=O)OC[C@]12CC[C@@H](C(=C)C)[C@@H]1[C@H]1CC[C@@H]3[C@@]4(C)CC[C@H](O)C(C)(C)[C@@H]4CC[C@@]3(C)[C@]1(C)CC2	inactive
C#CCNC(=O)CCCCCCCCCC(=O)OC[C@]12CC[C@@H](C(=C)C)[C@@H]1[C@H]1CC[C@@H]3[C@@]4(C)CC[C@H](O)C(C)(C)[C@@H]4CC[C@@]3(C)[C@]1(C)CC2	inactive
C=C(C)[C@@H]1CC[C@]2(COC(=O)/C=C(\C)C(=O)N3CCSCC3)CC[C@]3(C)[C@H](CC[C@@H]4[C@@]5(C)CC[C@H](O)C(C)(C)[C@@H]5CC[C@]43C)[C@@H]12	inactive
C#CCNC(=O)/C(C)=C/C(=O)OC[C@]12CC[C@@H](C(=C)C)[C@@H]1[C@H]1CC[C@@H]3[C@@]4(C)CC[C@H](O)C(C)(C)[C@@H]4CC[C@@]3(C)[C@]1(C)CC2	inactive
C#CC1(NC(=O)CCCC(=O)OC[C@]23CCC(C(=C)C)[C@@H]2[C@H]2CC[C@@H]4[C@@]5(C)CC[C@H](O)C(C)(C)[C@@H]5CC[C@@]4(C)[C@]2(C)CC3)CCCCC1 (single isomer, unassigned)	inactive
C=C(C)[C@@H]1CC[C@]2(COC(=O)c3cccc(C(=O)O)c3)CC[C@]3(C)[C@H](CC[C@@H]4[C@@]5(C)CC[C@H](O)C(C)(C)[C@@H]5CC[C@]43C)[C@@H]12	inactive
C#CC1(NC(=O)c2ccccc2C(=O)OC[C@]23CC[C@@H](C(=C)C)[C@@H]2[C@H]2CC[C@@H]4[C@@]5(C)CC[C@H](O)C(C)(C)[C@@H]5CC[C@@]4(C)[C@]2(C)CC3)CCCCC1	inactive
C=C(C)[C@@H]1CC[C@]2(COC(=O)CCCCCCCCCC(=O)O)CC[C@]3(C)[C@H](CC[C@@H]4[C@@]5(C)CC[C@H](O)C(C)(C)[C@@H]5CC[C@]43C)[C@@H]12	inactive
NC(=O)c1ncn([C@@H]2O[C@H](CO)[C@@H](O)[C@H]2O)n1 [RIBAVIRIN]	inactive
C=C(C)[C@@H]1CC[C@]2(COC(=O)CCCC(=O)N3CCOCC3)CC[C@]3(C)[C@H](CC[C@@H]4[C@@]5(C)CC[C@H](O)C(C)(C)[C@@H]5CC[C@]43C)[C@@H]12	inactive
C=C(C)[C@@H]1CC[C@]2(COC(=O)c3ccccc3C(=O)N3CCCCC3)CC[C@]3(C)[C@H](CC[C@H]4C3(C)CC[C@H]3C(C)(C)[C@@H](O)CC[C@@]34C)[C@@H]12 (single isomer, unassigned)	inactive
C=C(C)[C@@H]1CC[C@]2(COC(=O)/C=C(\C)C(=O)N3CCCCC3)CC[C@]3(C)[C@H](CC[C@@H]4[C@@]5(C)CC[C@H](O)C(C)(C)[C@@H]5CC[C@]43C)[C@@H]12	inactive
C#CC1(NC(=O)CCCCCCCCCC(=O)OC[C@]23CC[C@@H](C(=C)C)[C@@H]2[C@H]2CCC4[C@@]5(C)CC[C@H](O)C(C)(C)[C@@H]5CC[C@@]4(C)[C@]2(C)CC3)CCCCC1 (single isomer, unassigned)	inactive
C=C(C)[C@@H]1CC[C@]2(COC(=O)CCCCCCCCCC(=O)N3CCOCC3)CC[C@]3(C)[C@H](CC[C@@H]4[C@@]5(C)CC[C@H](O)C(C)(C)[C@@H]5CC[C@]43C)[C@@H]12	inactive
C=C(C)[C@@H]1CC[C@]2(COC(=O)CCC(=O)O)CC[C@]3(C)[C@H](CC[C@@H]4[C@@]5(C)CCC(O)C(C)(C)[C@@H]5CC[C@]43C)[C@@H]12 (single isomer, unassigned)	inactive
C=C(C)[C@@H]1CCC2(COC(=O)CCCCCCCCCC(=O)N3CCSCC3)CC[C@]3(C)[C@H](CC[C@@H]4[C@@]5(C)CC[C@H](O)C(C)(C)[C@@H]5CC[C@]43C)[C@@H]12 (single isomer, unassigned)	inactive
C=C(C)[C@@H]1CC[C@]2(COC(=O)CCCC(=O)N3CCCCC3)CC[C@]3(C)[C@H](CC[C@@H]4[C@@]5(C)CC[C@H](O)C(C)(C)[C@@H]5CC[C@]43C)[C@@H]12	inactive
C=C(C)[C@@H]1CC[C@]2(COC(=O)c3ccccc3C(=O)N3CCSCC3)CC[C@]3(C)[C@H](CC[C@@H]4[C@@]5(C)CC[C@H](O)C(C)(C)[C@@H]5CC[C@]43C)[C@@H]12	inactive
